# Laboratory results from PubChem BioAssay (NCI).
#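 1) Cells in 96-well plates. 2) Compound, 48 h, 5 concentrations. 3) Linear interpolation between surrounding doses. 4) Unreached endpoint = highest concentration. Here, GI50 denotes the concentration required for 50% inhibition of growth. TGI: concentration producing complete growth inhibition.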
# Columns and labels:
# Assay in all cases: NCI anticancer screen, dose series, 48 h
# 786-0 renal = system: 786-0 renal
# A498 renal = system: A498 renal
# A549 NSCLC = system: A549 NSCLC
# ACHN renal = system: ACHN renal
# BT-549 breast = system: BT-549 breast
# CAKI-1 renal = system: CAKI-1 renal
# CCRF-CEM leukemia = system: CCRF-CEM leukemia
# COLO 205 colon = system: COLO 205 colon
# DU-145 prostate = system: DU-145 prostate
# EKVX NSCLC = system: EKVX NSCLC
# HCC-2998 colon = system: HCC-2998 colon
# HCT-116 colon = system: HCT-116 colon
# HCT-15 colon = system: HCT-15 colon
# HL-60(TB) leukemia = system: HL-60(TB) leukemia
# HOP-62 NSCLC = system: HOP-62 NSCLC
# HOP-92 NSCLC = system: HOP-92 NSCLC
# HS 578T breast = system: HS 578T breast
# HT29 colon = system: HT29 colon
# IGROV1 ovarian = system: IGROV1 ovarian
# K-562 leukemia = system: K-562 leukemia
# KM12 colon = system: KM12 colon
# LOX IMVI melanoma = system: LOX IMVI melanoma
# M14 melanoma = system: M14 melanoma
# MALME-3M melanoma = system: MALME-3M melanoma
# MCF7 breast = system: MCF7 breast
# MDA-MB-231 breast = system: MDA-MB-231 breast
# MDA-MB-435 = system: MDA-MB-435
# MOLT-4 leukemia = system: MOLT-4 leukemia
# NCI-H226 lung = system: NCI-H226 lung
# NCI-H23 lung = system: NCI-H23 lung
# NCI-H460 lung = system: NCI-H460 lung
# NCI-H522 lung = system: NCI-H522 lung
# NCI/ADR-RES ovarian = system: NCI/ADR-RES ovarian
# OVCAR-3 ovarian = system: OVCAR-3 ovarian
# OVCAR-4 ovarian = system: OVCAR-4 ovarian
# OVCAR-5 ovarian = system: OVCAR-5 ovarian
# OVCAR-8 ovarian = system: OVCAR-8 ovarian
# PC-3 prostate = system: PC-3 prostate
# RPMI-8226 leukemia = system: RPMI-8226 leukemia
# RXF 393 renal = system: RXF 393 renal
# SF-268 CNS = system: SF-268 CNS
# SF-295 CNS = system: SF-295 CNS
# SF-539 CNS = system: SF-539 CNS
# SK-MEL-2 melanoma = system: SK-MEL-2 melanoma
# SK-MEL-28 melanoma = system: SK-MEL-28 melanoma
# SK-MEL-5 melanoma = system: SK-MEL-5 melanoma
# SK-OV-3 ovarian = system: SK-OV-3 ovarian
# SN12C renal = system: SN12C renal
# SNB-19 CNS = system: SNB-19 CNS
# SNB-75 CNS = system: SNB-75 CNS
# SR leukemia = system: SR leukemia
# SW-620 colon = system: SW-620 colon
# T-47D breast = system: T-47D breast
# TK-10 renal = system: TK-10 renal
# U251 CNS = system: U251 CNS
# UACC-257 melanoma = system: UACC-257 melanoma
# UACC-62 melanoma = system: UACC-62 melanoma
# UO-31 renal = system: UO-31 renal
smiles,measurement,setting,value
Nc1nc(-c2cccc([N+](=O)[O-])c2)c(N=Nc2ccc([N+](=O)[O-])cc2Cl)s1,GI50,786-0 renal,351 nM
same,TGI,786-0 renal,7210 nM
same,GI50,A498 renal,270 nM
same,TGI,A498 renal,737 nM
same,GI50,A549 NSCLC,354 nM
same,TGI,A549 NSCLC,> 34900 nM
same,GI50,ACHN renal,287 nM
same,TGI,ACHN renal,11300 nM
same,GI50,BT-549 breast,206 nM
same,TGI,BT-549 breast,842 nM
same,GI50,CAKI-1 renal,204 nM
same,TGI,CAKI-1 renal,1700 nM
same,GI50,CCRF-CEM leukemia,310 nM
same,TGI,CCRF-CEM leukemia,9120 nM
same,GI50,COLO 205 colon,342 nM
same,TGI,COLO 205 colon,1290 nM
same,GI50,DU-145 prostate,383 nM
same,TGI,DU-145 prostate,> 49900 nM
same,GI50,EKVX NSCLC,260 nM
same,TGI,EKVX NSCLC,4200 nM
same,GI50,HCC-2998 colon,309 nM
same,TGI,HCC-2998 colon,7420 nM
same,GI50,HCT-116 colon,231 nM
same,TGI,HCT-116 colon,1230 nM
same,GI50,HCT-15 colon,193 nM
same,TGI,HCT-15 colon,2000 nM
same,GI50,HL-60(TB) leukemia,254 nM
same,TGI,HL-60(TB) leukemia,1130 nM
same,GI50,HOP-62 NSCLC,312 nM
same,TGI,HOP-62 NSCLC,1700 nM
same,GI50,HOP-92 NSCLC,48.6 nM
same,TGI,HOP-92 NSCLC,418 nM
same,GI50,HS 578T breast,239 nM
same,TGI,HS 578T breast,1210 nM
same,GI50,HT29 colon,342 nM
same,TGI,HT29 colon,4380 nM
same,GI50,IGROV1 ovarian,446 nM
same,TGI,IGROV1 ovarian,18500 nM
same,GI50,K-562 leukemia,151 nM
same,TGI,K-562 leukemia,4990 nM
same,GI50,KM12 colon,272 nM
same,TGI,KM12 colon,3730 nM
same,GI50,LOX IMVI melanoma,317 nM
same,TGI,LOX IMVI melanoma,4610 nM
same,GI50,M14 melanoma,377 nM
same,TGI,M14 melanoma,6750 nM
same,GI50,MALME-3M melanoma,172 nM
same,TGI,MALME-3M melanoma,739 nM
same,GI50,MCF7 breast,192 nM
same,TGI,MCF7 breast,1360 nM
same,GI50,MDA-MB-231 breast,289 nM
same,TGI,MDA-MB-231 breast,1780 nM
same,GI50,MDA-MB-435,291 nM
same,TGI,MDA-MB-435,3650 nM
same,GI50,MOLT-4 leukemia,266 nM
same,TGI,MOLT-4 leukemia,2580 nM
same,GI50,NCI-H226 lung,196 nM
same,TGI,NCI-H226 lung,816 nM
same,GI50,NCI-H23 lung,168 nM
same,TGI,NCI-H23 lung,786 nM
same,GI50,NCI-H460 lung,243 nM
same,TGI,NCI-H460 lung,1260 nM
same,GI50,NCI-H522 lung,119 nM
same,TGI,NCI-H522 lung,2490 nM
same,GI50,NCI/ADR-RES ovarian,254 nM
same,TGI,NCI/ADR-RES ovarian,2050 nM
same,GI50,OVCAR-3 ovarian,245 nM
same,TGI,OVCAR-3 ovarian,12900 nM
same,GI50,OVCAR-4 ovarian,274 nM
same,TGI,OVCAR-4 ovarian,> 67400 nM
same,GI50,OVCAR-5 ovarian,535 nM
same,TGI,OVCAR-5 ovarian,36400 nM
same,GI50,OVCAR-8 ovarian,308 nM
same,TGI,OVCAR-8 ovarian,4460 nM
same,GI50,PC-3 prostate,244 nM
same,TGI,PC-3 prostate,7390 nM
same,GI50,RPMI-8226 leukemia,99.6 nM
same,GI50,RXF 393 renal,251 nM
same,TGI,RXF 393 renal,704 nM
same,GI50,SF-268 CNS,310 nM
same,TGI,SF-268 CNS,> 41400 nM
same,GI50,SF-295 CNS,261 nM
same,TGI,SF-295 CNS,1110 nM
same,GI50,SF-539 CNS,344 nM
same,TGI,SF-539 CNS,10400 nM
same,GI50,SK-MEL-2 melanoma,86 nM
same,TGI,SK-MEL-2 melanoma,401 nM
same,GI50,SK-MEL-28 melanoma,336 nM
same,TGI,SK-MEL-28 melanoma,8140 nM
same,GI50,SK-MEL-5 melanoma,87.7 nM
same,TGI,SK-MEL-5 melanoma,286 nM
same,GI50,SK-OV-3 ovarian,160 nM
same,TGI,SK-OV-3 ovarian,1000 nM
same,GI50,SN12C renal,261 nM
same,TGI,SN12C renal,4570 nM
same,GI50,SNB-19 CNS,311 nM
same,TGI,SNB-19 CNS,20800 nM
same,GI50,SNB-75 CNS,171 nM
same,TGI,SNB-75 CNS,2280 nM
same,GI50,SR leukemia,293 nM
same,TGI,SR leukemia,2940 nM
same,GI50,SW-620 colon,325 nM
same,TGI,SW-620 colon,5460 nM
same,GI50,T-47D breast,67.1 nM
same,TGI,T-47D breast,771 nM
same,GI50,TK-10 renal,573 nM
same,TGI,TK-10 renal,8870 nM
same,GI50,U251 CNS,213 nM
same,TGI,U251 CNS,1320 nM
same,GI50,UACC-257 melanoma,133 nM
same,TGI,UACC-257 melanoma,1370 nM
same,GI50,UACC-62 melanoma,144 nM
same,TGI,UACC-62 melanoma,1620 nM
same,GI50,UO-31 renal,236 nM
same,TGI,UO-31 renal,1380 nM
